Measurements published in paper PMC6897958, “Structural basis of ligand selectivity and disease mutations in cysteinyl leukotriene receptors” (Nature Communications, 2019).
Entries after “also recorded” stand apart in the source; their conditions may differ. Each block holds one compound with its values, some of them ahead of it.

Columns and labels:
[1] = molecular target: CysLT1R wild type (Homo sapiens, UniProt Q9Y271); experiment: cell-based; conditions: HEK293, read-out: % IP1 production (normalized), single replicate values, log[Pranlukast] -11 M; CysLT1-wt
[2] = tested on: CysLT2R; conditions: Supplementary Table 3 ref ref.2; cited from earlier work
[3] = tested on: CysLT1R; conditions: Supplementary Table 3 ref ref.2; cited from earlier work
[4] = tested on: CysLT1R; experiment: IC50 toward CysLT1R of the benzoxazine SAR series, quoted from the literature; conditions: CysLT1R over CysLT2R; SAR series of ref [30]
[5] = tested on: HEK293 cells; experiment: Quantification of LTD4 degradation in IP1 assay (UPLC/MS); format: in vitro ADME; conditions: 10 µM LTD4 over HEK293 monolayer, 30 min, 37 °C, with or without L-Cys
Procedure: HEK293 cells were seeded in a 6-well plate at a density of 300,000 cells per well. Forty-eight hours after seeding, medium was removed, and cells were washed twice with PBS. […] After incubation, supernatant was filtered through a 0.22 µm PVDF filter and an internal standard was added before injection on UPLC/MS (Waters UPLC system coupled with a SQ detector 2 and a PDA eλ detector, using an Acquity UPLC BEH C18 column, 2.1 mm × 50 mm, 1.7 μm spherical size). UPLC chromatograms were recorded using the following gradient: water + 0.1% TFA and acetonitrile (0 → 0.2 min, 5% acetonitrile; 0.2 → 1.5 min, 5% → 95%; 1.5 → 1.8 min, 95%; 1.8 → 2.0 min, 95% → 5%; and 2.0 → 2.5 min, 5%). Quantification was done by determining the area under the curve (AUC) ratio of the tested compound over AUC of the internal standard. […] Quantification results are expressed as mean ± s.e.m. of three independent experiments.

Sequence of CysLT1R wild type (Q9Y271 whole entry): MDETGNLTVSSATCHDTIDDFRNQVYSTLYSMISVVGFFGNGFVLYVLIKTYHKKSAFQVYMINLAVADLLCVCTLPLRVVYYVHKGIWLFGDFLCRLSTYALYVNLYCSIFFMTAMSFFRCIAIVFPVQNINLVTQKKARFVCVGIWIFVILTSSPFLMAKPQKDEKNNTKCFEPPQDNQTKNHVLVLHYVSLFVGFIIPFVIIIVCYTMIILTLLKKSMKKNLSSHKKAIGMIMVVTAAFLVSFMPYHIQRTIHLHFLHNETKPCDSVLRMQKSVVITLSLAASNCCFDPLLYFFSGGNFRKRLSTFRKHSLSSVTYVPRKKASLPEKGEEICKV

remaining activity at 10 pM [1]: 94.3%
Structure (SMILES): O=C(Nc1cccc2c(=O)cc(-c3nnn[nH]3)oc12)c1ccc(OCCCCc2ccccc2)cc1 [pranlukast]

Structure (SMILES): O=C(O)CCC(=O)N1C[C@@H](C(=O)O)Oc2c(NC(=O)c3ccc(OCCCCc4ccccc4)cc3)cccc21 [cpd 13e]
IC50 [2]: 1800 nM
IC50 [3]: < 1 nM
selectivity for CysLT1R [4]: 1,800 fold

Structure (SMILES): CCCCC/C=C\C\C=C/C=C/C=C/[C@@H](SC[C@H](N)C(=O)NCC(=O)O)[C@@H](O)CCCC(=O)O [LTD4]
LTD4 conversion/degradation in functional assay [5]: No LTD4 conversion was found; also recorded: No LTD4 degradation was observed
